Test results from patent US20230181614A1, “ADMINISTRATION OF CITICOLINE TO IMPROVE COGNITIVE PERFORMANCE, ATTENTIONAL PERFORMANCE, AND MOTOR FUNCTION” (KYOWA HAKKO BIO CO., LTD., priority 2014, published 2023).
Values joined by “and” are separate entries in the source; they are usually repeats but may differ in a detail not shown here. Identical values can stand only once.

System: Healthy subjects, ages 13-18
Assay: Exercise and Life Style Questionnaire
Type: in vivo, human
Design: scale not given here
Settings: for Alcohol Q10 V1 Mean / Alcohol Q11 V1 Mean / Alcohol Q12 V1 Mean / Alcohol Total V1 Mean / Appetite Q5 V1 Mean / Appetite Q6 V1 Mean / Appetite Total V1 Mean / Exercise Q1 V1 Mean / Exercise Q2 V1 Mean / Exercise Q3 V1 Mean / Exercise Q4 V1 Mean / Exercise Total V1 Mean / Smoke Q7 V1 Mean / Smoke Q8 V1 Mean / Smoke Q9 V1 Mean / Smoke Total V1 Mean: Visit 1; for Alcohol Q10 V3 Mean / Alcohol Q11 V3 Mean / Alcohol Q12 V3 Mean / Alcohol Total V3 Mean / Appetite Q5 V3 Mean / Appetite Q6 V3 Mean / Appetite Total V3 Mean / Exercise Q1 V3 Mean / Exercise Q2 V3 Mean / Exercise Q3 V3 Mean / Exercise Q4 V3 Mean / Exercise Total V3 Mean / Smoke Q7 V3 Mean / Smoke Q8 V3 Mean / Smoke Q9 V3 Mean / Smoke Total V3 Mean: Visit 3
Excerpt: Study participants were screened by telephone prior to study enrollment. Healthy subjects, ages 13-18, with no significant medical conditions and no history of co-morbid psychiatric disorder, current Axis I or II diagnosis, or previous participation in a pharmacotherapeutic trial, were selected. Use of any psychotropic medication or any previous head injury resulting in loss of consciousness for 5 or more minutes were used as exclusion criteria. While no participant met criteria for a neuropsychiatric disorder at enrollment, clinical assessments were still completed throughout the study to evaluate changes in mood state. In addition, self-reports of sleep habits, lifestyle, and exercise routines were also administered at baseline as well as at each study visit to assess changes in health habits during study participation. Following the completion of Visit 1 assessment, participants were given their 28-day supply of citicoline (250 mg or 500 mg) or placebo, which was randomly assigned. They were instructed to take one capsule a day every day for the next 28 days. Visit 2 occurred fourteen days after Visit 1. At Visit 2, the remaining study pills were counted and participant dosage calendars were checked to ensure compliance with the protocol. Additional neuropsychological measures and clinical assessments were administered during this visit. Participants returned for Visit 3 fourteen days later, on the 28th day of their study participation. The pill bottle and the dosage calendar were collected from each participant. Urine and blood were again obtained. Participants also participated in similar clinical and neuropsychological testing and clinical measures that were given during visit 1. The General Questionnaire and Exercise and Life Style Questionnaire are self-report questionnaires designed to assess a variety of symptoms, behaviors, and self-perceptions, including mood, complexion, exercise, food, and alcohol habits of each of the participants. The General Questionnaire was administered during each of the three study visits; the Exercise and Life Style Questionnaire was administered during each of the three study visits. The Exercise/Lifestyle Questionnaire included four summary categories (Exercise, Appetite, Smoke, and Alcohol), each of which consisted of multiple individual items. Within and between group analyses are reported below for each of the summary categories.

Compound: C[N+](C)(C)CCOP(=O)(O)OP(=O)([O-])OC[C@H]1O[C@@H](n2ccc(N)nc2=O)[C@H](O)[C@@H]1O [citicoline, Cytidine 5′-diphosphocholine]
- Alcohol Total V3-V1 Mean (250 mg/day): 0.00
- Appetite Total V3-V1 Mean (250 mg/day): -0.59
- Exercise Total V3-V1 Mean (250 mg/day): -0.78
- Smoke Total V3-V1 Mean (250 mg/day): -0.07
- Alcohol Q10 V1 Mean (250 mg/day): 0.07
- Alcohol Q11 V1 Mean (250 mg/day): 1.00
- Alcohol Q12 V1 Mean (250 mg/day): 1.00
- Alcohol Total V1 Mean (250 mg/day): 2.07
- Appetite Q5 V1 Mean (250 mg/day): 4.11
- Appetite Q6 V1 Mean (250 mg/day): 4.44
- Appetite Total V1 Mean (250 mg/day): 8.56
- Exercise Q1 V1 Mean (250 mg/day): 1.15
- Exercise Q2 V1 Mean (250 mg/day): 6.35
- Exercise Q3 V1 Mean (250 mg/day): 3.56
- Exercise Q4 V1 Mean (250 mg/day): 3.81
- Exercise Total V1 Mean (250 mg/day): 14.87
- Smoke Q7 V1 Mean (250 mg/day): 0.00
- Smoke Q8 V1 Mean (250 mg/day): 1.00
- Smoke Q9 V1 Mean (250 mg/day): 1.07
- Smoke Total V1 Mean (250 mg/day): 2.08
- Alcohol Q10 V3 Mean (250 mg/day): 0.07
- Alcohol Q11 V3 Mean (250 mg/day): 1.00
- Alcohol Q12 V3 Mean (250 mg/day): 1.00
- Alcohol Total V3 Mean (250 mg/day): 2.07
- Appetite Q5 V3 Mean (250 mg/day): 4.15
- Appetite Q6 V3 Mean (250 mg/day): 3.81
- Appetite Total V3 Mean (250 mg/day): 7.96
- Exercise Q1 V3 Mean (250 mg/day): 1.07
- Exercise Q2 V3 Mean (250 mg/day): 6.80
- Exercise Q3 V3 Mean (250 mg/day): 3.11
- Exercise Q4 V3 Mean (250 mg/day): 3.11
- Exercise Total V3 Mean (250 mg/day): 14.09
- Smoke Q7 V3 Mean (250 mg/day): 0.00
- Smoke Q8 V3 Mean (250 mg/day): 1.00
- Smoke Q9 V3 Mean (250 mg/day): 1.00
- Smoke Total V3 Mean (250 mg/day): 2.00
- Alcohol Total V3-V1 Mean (500 mg/day): 0.00
- Appetite Total V3-V1 Mean (500 mg/day): -0.83
- Exercise Total V3-V1 Mean (500 mg/day): -2.78
- Smoke Total V3-V1 Mean (500 mg/day): 0.00
- Alcohol Q10 V1 Mean (500 mg/day): 0.00
- Alcohol Q11 V1 Mean (500 mg/day): 1.00
- Alcohol Q12 V1 Mean (500 mg/day): 1.00
- Alcohol Total V1 Mean (500 mg/day): 2.00
- Appetite Q5 V1 Mean (500 mg/day): 3.96
- Appetite Q6 V1 Mean (500 mg/day): 3.25
- Appetite Total V1 Mean (500 mg/day): 7.21
- Exercise Q1 V1 Mean (500 mg/day): 1.17
- Exercise Q2 V1 Mean (500 mg/day): 8.50
- Exercise Q3 V1 Mean (500 mg/day): 3.71
- Exercise Q4 V1 Mean (500 mg/day): 3.75
- Exercise Total V1 Mean (500 mg/day): 17.24
- Smoke Q7 V1 Mean (500 mg/day): 0.00
- Smoke Q8 V1 Mean (500 mg/day): 1.00
- Smoke Q9 V1 Mean (500 mg/day): 1.00
- Smoke Total V1 Mean (500 mg/day): 2.00
- Alcohol Q10 V3 Mean (500 mg/day): 0.00
- Alcohol Q11 V3 Mean (500 mg/day): 1.00
- Alcohol Q12 V3 Mean (500 mg/day): 1.00
- Alcohol Total V3 Mean (500 mg/day): 2.00
- Appetite Q5 V3 Mean (500 mg/day): 3.50
- Appetite Q6 V3 Mean (500 mg/day): 2.88
- Appetite Total V3 Mean (500 mg/day): 6.38
- Exercise Q1 V3 Mean (500 mg/day): 1.13
- Exercise Q2 V3 Mean (500 mg/day): 7.54
- Exercise Q3 V3 Mean (500 mg/day): 2.96
- Exercise Q4 V3 Mean (500 mg/day): 2.75
- Exercise Total V3 Mean (500 mg/day): 14.46 and 14.48
- Smoke Q7 V3 Mean (500 mg/day): 0.00
- Smoke Q8 V3 Mean (500 mg/day): 1.00
- Smoke Q9 V3 Mean (500 mg/day): 1.00
- Smoke Total V3 Mean (500 mg/day): 2.00
